The record followed here is patent publication US12521393B2, “Cytotoxicity targeting chimeras for CCR2-expressing cells” (GLAXOSMITHKLINE INTELLECTUAL PROPERTY DEVELOPMENT LIMITED, priority 2021, dated 2026).

Counter-ions that a name gives are not always drawn.

This experiment concerns endogenous target monocytes in human PBMC. As to the kind of experiment: PBMC ex vivo monocyte depletion flow cytometry assay (Example 200). The following applies: with anti-cotinine antibody (SEQ ID NO: 11/12), 18-24 hours, EC50 in molar, read-out: Ex Vivo Depletion Assay pEC50 (converted). The experiment is classed as cell-based. In outline:
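Monocyte depletion is reported as pEC50, averaged or given individually across runs, and read by flow cytometry staining CD45, CD14 and CD4 with a viability dye. Compounds, diluted four-fold over 11 points from 1 mM DMSO stocks, were combined with 30 μg/mL Fc-enhanced anti-cotinine antibody and human PBMC, then incubated 18-24 h at 37° C.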
On to `CC(C)N(C)[C@@H]1CC[C@H](N2CC[C@H](Nc3ncnc4ccc(C(F)(F)F)cc34)C2=O)[C@H](NC(=O)c2ccc(NCCOCCOCCOCCOCCNC(=O)[C@H]3CC(=O)N(C)[C@@H]3c3cccnc3)nc2)C1` [Example 128, N-((1R,2S,5R)-5-(Isopropyl(methyl)amino)-2-((S)-2-oxo-3-((6-(trifluoromethyl)quinazolin-4-yl)amino)pyrrolidin-1-yl)cyclohexyl)-6-((1-((2S,3S)-1-methyl-5-oxo-2-(pyridin-3-yl)pyrrolidin-3-yl)-1-oxo-5,8,11, 14-tetraoxa-2-azahexadecan-16-yl)amino) nicotinamide], for which the EC50 is 1.58 nM.

For the compound `CC(C)N(C)[C@@H]1CC[C@H](N2CC[C@H](Nc3ncnc4ccc(C(F)(F)F)cc34)C2=O)[C@H](NC(=O)c2cnn(C3CCN(CCOCCOCCOCCNC(=O)[C@H]4CC(=O)N(C)[C@@H]4c4cccnc4)CC3)c2)C1` [Example 129, N-((1R,2S,5R)-5-(Isopropyl(methyl)amino)-2-((S)-2-oxo-3-((6-(trifluoromethyl)quinazolin-4-yl)amino)pyrrolidin-1-yl)cyclohexyl)-1-(1-(1-((2S,3S)-1-methyl-5-oxo-2-(pyridin-3-yl)pyrrolidin-3-yl)-1-oxo-5,8,11-trioxa-2-azatridecan-13-yl)piperidin-4-yl)-1H-pyrazole-4-carboxamide], the EC50 is 1.26 nM.

With `CC(C)N(C)[C@@H]1CC[C@H](N2CC[C@H](Nc3ncnc4ccc(C(F)(F)F)cc34)C2=O)[C@H](NC(=O)C2CCC(N3CC(C(=O)NCCOCCOCCNC(=O)[C@H]4CC(=O)N(C)[C@@H]4c4cccnc4)C3)CC2)C1` (stereo partly drawn) [Example 131, (2S,3S)-N-(2-(2-(2-(1-(4-(((1R,2S,5R)-5-(Isopropyl(methyl)amino)-2-((S)-2-oxo-3-((6-(trifluoromethyl)quinazolin-4-yl)amino)pyrrolidin-1-yl)cyclohexyl)carbamoyl)cyclohexyl)azetidine-3-carboxamido)ethoxy)ethoxy)ethyl)-1-methyl-5-oxo-2-(pyridin-3-yl)pyrrolidine-3-carboxamide], the EC50 is 0.501 nM.

Take `CC(C)N(C)[C@@H]1CC[C@H](N2CC[C@H](Nc3ncnc4ccc(C(F)(F)F)cc34)C2=O)[C@H](NC(=O)[C@H]2CC[C@@H](N3CCC(C(=O)NCCOCCOCCNC(=O)[C@H]4CC(=O)N(C)[C@@H]4c4cccnc4)C(F)(F)C3)CC2)C1` (stereo partly drawn) [Example 132, 3,3-Difluoro-1-((1S,4s)-4-(((1R,2S,5R)-5-(isopropyl(methyl)amino)-2-((S)-2-oxo-3-((6-(trifluoromethyl)quinazolin-4-yl)amino)pyrrolidin-1-yl)cyclohexyl)carbamoyl)cyclohexyl)-N-(2-(2-(2-((2S,3S)-1-methyl-5-oxo-2-(pyridin-3-yl)pyrrolidine-3-carboxamido)ethoxy)ethoxy)ethyl)piperidine-4-carboxamide]: the EC50 was 0.631 nM.

As for `CC(C)N(C)[C@@H]1CC[C@H](N2CC[C@H](Nc3ncnc4ccc(C(F)(F)F)cc34)C2=O)[C@H](NC(=O)c2ccc([C@H]3CC[C@@H](C(=O)NCCOCCOCCNC(=O)[C@H]4CC(=O)N(C)[C@@H]4c4cccnc4)CC3)cc2)C1` [Example 133, (2S,3S)-N-(2-(2-(2-((1S,4s)-4-(4-(((1R,2S,5R)-5-(Isopropyl(methyl)amino)-2-((S)-2-oxo-3-((6-(trifluoromethyl)quinazolin-4-yl)amino)pyrrolidin-1-yl)cyclohexyl)carbamoyl)phenyl)cyclohexane-1-carboxamido)ethoxy)ethoxy)ethyl)-1-methyl-5-oxo-2-(pyridin-3-yl)pyrrolidine-3-carboxamide], the EC50 was 1.26 nM.

Take `CC(C)N(C)[C@@H]1CC[C@H](N2CC[C@H](Nc3ncnc4ccc(C(F)(F)F)cc34)C2=O)[C@H](NC(=O)[C@H]2CC[C@@H](N3CCC(C(=O)NCCOCCOCCNC(=O)[C@H]4CC(=O)N(C)[C@@H]4c4cccnc4)CC3)CC2)C1` [Example 134, 1-((1S,4s)-4-(((1R,2S,5R)-5-(Isopropyl(methyl)amino)-2-((S)-2-oxo-3-((6-(trifluoromethyl)quinazolin-4-yl)amino)pyrrolidin-1-yl)cyclohexyl)carbamoyl)cyclohexyl)-N-(2-(2-(2-((2S,3S)-1-methyl-5-oxo-2-(pyridin-3-yl)pyrrolidine-3-carboxamido)ethoxy)ethoxy)ethyl)piperidine-4-carboxamide, 3Formic acid salt]: the EC50 was 0.126 nM.

Consider `CC(C)N(C)[C@@H]1CC[C@H](N2CC[C@H](Nc3ncnc4ccc(C(F)(F)F)cc34)C2=O)[C@H](NC(=O)[C@H]2CC[C@H](N3CCC(C(=O)NCCOCCOCCNC(=O)[C@H]4CC(=O)N(C)[C@@H]4c4cccnc4)CC3)CC2)C1` [Example 135, 1-((1R,4r)-4-(((1R,2S,5R)-5-(Isopropyl(methyl)amino)-2-((S)-2-oxo-3-((6-(trifluoromethyl)quinazolin-4-yl)amino)pyrrolidin-1-yl)cyclohexyl)carbamoyl)cyclohexyl)-N-(2-(2-(2-((2S,3S)-1-methyl-5-oxo-2-(pyridin-3-yl)pyrrolidine-3-carboxamido)ethoxy)ethoxy)ethyl)piperidine-4-carboxamide 3Formic acid salt], for which the EC50 was 1.58 nM.

In the case of `CC(C)N(C)[C@@H]1CC[C@H](N2CC[C@H](Nc3ncnc4ccc(C(F)(F)F)cc34)C2=O)[C@H](NC(=O)[C@H]2CC[C@H](c3ccc(C(=O)NCCOCCOCCNC(=O)[C@H]4CC(=O)N(C)[C@@H]4c4cccnc4)cn3)CC2)C1` [Example 139, 6-((1R,4r)-4-(((1R,2S,5R)-5-(Isopropyl(methyl)amino)-2-((S)-2-oxo-3-((6-(trifluoromethyl)quinazolin-4-yl)amino)pyrrolidin-1-yl)cyclohexyl)carbamoyl)cyclohexyl)-N-(2-(2-(2-((2S,3S)-1-methyl-5-oxo-2-(pyridin-3-yl)pyrrolidine-3-carboxamido)ethoxy)ethoxy)ethyl)nicotinamide], the EC50 was 5.01 nM.

As for `CC(C)N(C)[C@@H]1CC[C@H](N2CC[C@H](Nc3ncnc4ccc(C(F)(F)F)cc34)C2=O)[C@H](NC(=O)[C@H]2CC[C@H](c3ccc(C(=O)NCCOCCOCCNC(=O)[C@H]4CC(=O)N(C)[C@@H]4c4cccnc4)nc3)CC2)C1` [Example 141, 5-((1R,4r)-4-(((1R,2S,5R)-5-(Isopropyl(methyl)amino)-2-((S)-2-oxo-3-((6-(trifluoromethyl)qinazolin-4-yl)amino)pyrrolidin-1-yl)cyclohexyl)carbamoyl)cyclohexyl)-N-(2-(2-(2-((2S,3S)-1-methyl-5-oxo-2-(pyridin-3-yl)pyrrolidine-3-carboxamido)ethoxy)ethoxy)ethyl)picolinamide], the EC50 is 6.31 nM.

As to `CC(C)N(C)[C@@H]1CC[C@H](N2CC[C@H](Nc3ncnc4ccc(C(F)(F)F)cc34)C2=O)[C@H](NC(=O)[C@H]2CC[C@@H](N3CCN(CCCCCCCCNC(=O)[C@H]4CC(=O)N(C)[C@@H]4c4cccnc4)CC3)CC2)C1` [Example 145, (2S,3S)-N-(8-(4-((1S,4s)-4-(((1R,2S,5R)-5-(Isopropyl(methyl)amino)-2-((S)-2-oxo-3-((6-(trifluoromethyl)quinazolin-4-yl)amino)pyrrolidin-1-yl)cyclohexyl)carbamoyl)cyclohexyl)piperazin-1-yl)octyl)-1-methyl-5-oxo-2-(pyridin-3-yl)pyrrolidine-3-carboxamide], the EC50 is 1.26 nM.

As to `CC(C)N(C)[C@@H]1CC[C@H](N2CC[C@H](Nc3ncnc4ccc(C(F)(F)F)cc34)C2=O)[C@H](NC(=O)COCCCCCCCCCOCCCCCCCNC(=O)[C@H]2CC(=O)N(C)[C@@H]2c2cccnc2)C1` [Example 153, (2S,3S)-N-(7-((9-(2-(((1R,2S,5R)-5-(Isopropyl(methyl)amino)-2-((S)-2-oxo-3-((6-(trifluoromethyl)quinazolin-4-yl)amino)pyrrolidin-1-yl)cyclohexyl)amino)-2-oxoethoxy)nonyl)oxy)heptyl)-1-methyl-5-oxo-2-(pyridin-3-yl)pyrrolidine-3-carboxamide], the EC50 was 0.631 nM.

With `CC(C)N(C)[C@@H]1CC[C@H](N2CC[C@H](Nc3ncnc4ccc(C(F)(F)F)cc34)C2=O)[C@H](NC(=O)c2cnn(C3CCN(C(=O)CCCCCCCCCCNC(=O)[C@H]4CC(=O)N(C)[C@@H]4c4cccnc4)CC3)c2)C1` [Example 156, N-((1R,2S,5R)-5-(Isopropyl(methyl)amino)-2-((S)-2-oxo-3-((6-(trifluoromethyl)quinazolin-4-yl)amino)pyrrolidin-1-yl)cyclohexyl)-1-(1-(11-((2S,3S)-1-methyl-5-oxo-2-(pyridin-3-yl)pyrrolidine-3-carboxamido)undecanoyl)piperidin-4-yl)-1H-pyrazole-4-carboxamide], the EC50 was 0.794 nM.

On to `CC(C)N(C)[C@@H]1CC[C@H](N2CC[C@H](Nc3ncnc4ccc(C(F)(F)F)cc34)C2=O)[C@H](NC(=O)C2CC=C(c3ccc(OCCCCCCNC(=O)[C@H]4CC(=O)N(C)[C@@H]4c4cccnc4)cc3)CC2)C1` (stereo partly drawn) [Example 158, (2S,3S)-N-(6-((4′-(((1R,2S,5R)-5-(Isopropyl(methyl)amino)-2-((S)-2-oxo-3-((6-(trifluoromethyl)quinazolin-4-yl)amino)pyrrolidin-1-yl)cyclohexyl)carbamoyl)-2′,3′,4′,5′-tetrahydro-[1,1′-biphenyl]-4-yl)oxy)hexyl)-1-methyl-5-oxo-2-(pyridin-3-yl)pyrrolidine-3-carboxamide], for which the EC50 was 0.501 nM.

For the compound `CC(C)N(C)[C@@H]1CC[C@H](N2CC[C@H](Nc3ncnc4ccc(C(F)(F)F)cc34)C2=O)[C@H](NC(=O)c2ccnc(CCCOCCOCCOCCOCCNC(=O)[C@H]3CC(=O)N(C)[C@@H]3c3cccnc3)c2)C1` [Example 160, N-((1R,2S,5R)-5-(Isopropyl(methyl)amino)-2-((S)-2-oxo-3-((6-(trifluoromethyl)quinazolin-4-yl)amino)pyrrolidin-1-yl)cyclohexyl)-2-(1-((2S,3S)-1-methyl-5-oxo-2-(pyridin-3-yl)pyrrolidin-3-yl)-1-oxo-5,8,11,14-tetraoxa-2-azaheptadecan-17-yl)isonicotinamide, 3Formic acid salt], the EC50 is 31.6 nM.
